# Data as given in patent US9493468B2, “Antifungal 5,6-dihydro-4H-pyrrolo[1,2-a][1,4]benzo-diazepines and 6H-pyrrolo[1,2-a][1,4]benzodiazepines substituted with heterocyclic derivatives” (Janssen Pharmaceutica NV, priority 2011, dated 2016).
# Experiments:
# Format in all cases: cell-based
# [1] = system: Rhizomucor miehei; assay: Antifungal activity in vitro, resazurin growth inhibition: Rhizomucor miehei (IHEM13391)
# Outline: (§1)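 Resazurin conversion to fluorescent resorufin (ex 550/em 590 nm) served as the growth readout. Compounds spanned 2- or 4-fold serial dilutions with 64 μM top in-test concentration; inoculum 10^3 cfu per well in MOPS-buffered RPMI-1640 (pH 7.0, 2% glucose). Incubation species-dependent, dermatophytes at 27° C. for ≥1 week.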
# [2] = system: Aspergillus fumigatus; assay: Antifungal activity in vitro, resazurin growth inhibition: Aspergillus fumigatus (B42928)
# Outline: as §1
# [3] = system: Trichophyton mentagrophytes; assay: Antifungal activity in vitro, resazurin growth inhibition: Trichophyton mentagrophytes (B70554)
# Outline: (§2)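 Compound dilutions, with 64 μM as the highest in-test level, are spotted onto plates, then an inoculum of 10^3 cfu in RPMI-1640 plus 2% glucose (MOPS, pH 7.0±0.1) is added. Plates are incubated at species-dependent time and temperature, up to a week or more at 27° C. for dermatophytes.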
# [4] = system: Sporothrix schenkii; assay: Antifungal activity in vitro, resazurin growth inhibition: Sporothrix schenkii (B62482)
# Outline: as §1
# [5] = system: Scedosporium prolificans; assay: Antifungal activity in vitro, resazurin growth inhibition: Scedosporium prolificans (IHEM21157)
# Outline: as §1
# [6] = system: Candida parapsilosis; assay: Antifungal activity in vitro, resazurin growth inhibition: Candida parapsilosis (B66126)
# Outline: as §1
# [7] = system: Trichophyton rubrum; assay: Antifungal activity in vitro, resazurin growth inhibition: Trichophyton rubrum (B68183)
# Outline: as §2
# [8] = system: Scedosporium apiospermum; assay: Antifungal activity in vitro, resazurin growth inhibition: Scedosporium apiospermum (IHEM3817)
# Outline: as §1
# [9] = system: Cryptococcus neoformans; assay: Antifungal activity in vitro, resazurin growth inhibition: Cryptococcus neoformans (B66663)
# Outline: as §1
# [10] = system: Rhizopus oryzae; assay: Antifungal activity in vitro, resazurin growth inhibition: Rhizopus oryzae (IHEM5223)
# Outline: as §1
# [11] = system: Microsporum canis; assay: Antifungal activity in vitro, resazurin growth inhibition: Microsporum canis (B68128)
# Outline: as §2
"Inf. K: Rhizomucor miehei IHEM13391, pIC50 [1]","Inf. E: Aspergillus fumigatus B42928, pIC50 [2]","Inf. G: Trichophyton mentagrophytes B70554, pIC50 [3]","Inf. A: Sporothrix schenkii B62482, pIC50 [4]","Inf. I: Scedosporium prolificans IHEM21157, pIC50 [5]","Inf. D: Candida parapsilosis B66126, pIC50 [6]","Inf. C: Trichophyton rubrum B68183, pIC50 [7]","Inf. H: Scedosporium apiospermum IHEM3817, pIC50 [8]","Inf. F: Cryptococcus neoformans B66663, pIC50 [9]","Inf. J: Rhizopus oryzae IHEM5223, pIC50 [10]","Inf. B: Microsporum canis B68128, pIC50 [11]",SMILES
<4.19,5.28,5.86,5.12,4.46,<4.19,6.70,<4.19,5.81,<4.19,6.19,Clc1cccc2c1CN=C(c1cc3ccccc3s1)c1cccn1-2 [Compound 165]
<4.19,6.00,5.52,5.52,5.65,<4.19,5.70,4.33,6.00,5.37,5.70,Clc1ccc2c(c1)-n1cccc1C(c1cc3ccccc3s1)=NC2 [Compound 166]
5.10,5.38,5.97,5.70,6.31,4.90,6.79,5.72,5.86,<4.19,6.01,Clc1cccc2c1-n1cccc1C(c1cc3ccccc3s1)=NC2 [Compound 167]
<4.19,6.73,6.40,6.22,6.48,<4.19,6.18,<4.19,6.41,<4.19,4.96,Clc1cc(Cl)c2c(c1)-n1cccc1C(c1cc3ccccc3s1)=NC2 [Compound 168]
<4.19,5.74,6.18,5.55,6.51,<4.19,6.63,5.63,6.47,<4.19,6.23,Fc1cccc2cc(C3=NCc4c(Cl)cccc4-n4cccc43)sc12 [Compound 170]
4.72,6.29,6.81,5.59,5.45,5.80,7.35,5.15,5.85,<4.19,6.90,Clc1cccc2c1CN=C(c1ccc3ccsc3c1)c1cccn1-2 [Compound 172]
5.08,6.30,6.51,5.70,4.54,5.71,6.41,5.08,6.41,<4.19,6.54,Clc1ccc2c(c1)-n1cccc1C(c1ccc3sccc3c1)=NC2 [Compound 173]
<4.19,6.30,6.80,6.06,4.80,<4.19,6.87,<4.19,6.43,<4.19,6.54,Clc1cccc2c1-n1cccc1C(c1ccc3sccc3c1)=NC2 [Compound 174]
5.14,6.85,7.11,5.70,5.56,6.17,7.36,5.08,6.41,5.07,6.90,Fc1cccc2c1CN=C(c1ccc3sccc3c1)c1cccn1-2 [Compound 175]
<4.19,6.49,6.57,5.70,6.15,6.03,6.90,5.54,6.49,<4.19,6.89,Fc1cc(F)c2c(c1)-n1cccc1C(c1ccc3sccc3c1)=NC2 [Compound 176]
<4.49,5.26,5.99,4.77,4.96,5.31,6.68,<4.49,4.49,<4.49,5.85,Cc1cccc2c1CN=C(c1ccc3ncsc3c1)c1cccn1-2 [Compound 183]
<4.19,6.27,6.51,<4.19,6.15,<4.19,7.32,<4.19,<4.19,<4.19,6.70,Clc1cccc2c1CN=C(c1ccc3ncsc3c1)c1cccn1-2 [Compound 184]
<4.19,6.29,6.04,5.28,5.16,4.23,6.73,4.41,6.33,<4.19,6.39,Clc1ccc2c(c1)-n1cccc1C(c1ccc3ncsc3c1)=NC2 [Compound 185]
4.35,5.63,6.06,5.15,5.40,<4.19,6.34,4.78,5.69,<4.19,5.95,Clc1cccc2c1-n1cccc1C(c1ccc3ncsc3c1)=NC2 [Compound 186]
<4.19,5.98,6.22,5.09,6.92,4.50,6.77,5.79,5.46,<4.19,5.68,Clc1cc(Cl)c2c(c1)-n1cccc1C(c1ccc3ncsc3c1)=NC2 [Compound 187]
4.42,5.56,6.05,<4.19,6.24,4.90,6.64,6.29,4.98,<4.19,6.20,Clc1cccc2c1CN=C(c1ccc3scnc3c1)c1cccn1-2 [Compound 188]
